Each compound was assayed against T1, BTK (Homo sapiens, UniProt Q06187) (assay: Cellular BTK HTRF assay (BTK degradation) in TMD8 cells). Settings: four hours incubation, Total-BTK HTRF relative to DMSO-treated cells.
T1 construct: endogenous in cells; host or cells: TMD8 cells
Format: cell-based
Protocol: Example 66: BTK Degradation Assay
TMD8 cells were obtained from Tokyo Medical and Dental University and were grown in alpha-MEM (Fisher 12571063) supplemented with 10% heat-inactivated FBS (Corning Premium Fetal Bovine Serum from Fisher, MT35015CV).
Compounds of the present invention were added to 50,000 TMD8 cells in round-bottom 96 well plates with a final DMSO concentration of […] and were incubated at 37° C. 5% CO2 for four hours. BTK levels were determined using Cisbio Total-BTK HTRF ([…] Time-Resolved Fluorescence) kit (63ADK064PEG) according to manufacturer's protocol. Briefly, cells were incubated in 1× supplied lysis buffer for 30 minutes. In an opaque white low volume 96 well plate (Cisbio, 66PL96005), cell lysate was combined with two different specific BTK antibodies, one conjugated with Eu^3+-Cryptate FRET donor and one conjugated with d2 FRET acceptor. Assay controls include wells containing cell lysate with only the Eu^3+-Cryptate FRET donor antibody and wells containing both HTRF antibodies and lysis buffer without cells or control lysate provided by Cisbio. HTRF ratio was calculated as (acceptor signal at 665 nm/donor signal at 620 nm)×10^4. Background HTRF levels were determined from the control well containing the donor, but no acceptor, antibody. Background HTRF levels were subtracted from all samples. Readouts were reported as HTRF levels relative to HTRF levels of DMSO-treated cells. Four-parameter non-linear regressions were performed in GraphPad Prism 7.02 to obtain DC50 values. DC50 values are provided in Table 3, wherein A<5.0 nM, 5.0 nM≤B≤15 nM, and 15 nM<C.

T1 sequence (Q06187 whole entry): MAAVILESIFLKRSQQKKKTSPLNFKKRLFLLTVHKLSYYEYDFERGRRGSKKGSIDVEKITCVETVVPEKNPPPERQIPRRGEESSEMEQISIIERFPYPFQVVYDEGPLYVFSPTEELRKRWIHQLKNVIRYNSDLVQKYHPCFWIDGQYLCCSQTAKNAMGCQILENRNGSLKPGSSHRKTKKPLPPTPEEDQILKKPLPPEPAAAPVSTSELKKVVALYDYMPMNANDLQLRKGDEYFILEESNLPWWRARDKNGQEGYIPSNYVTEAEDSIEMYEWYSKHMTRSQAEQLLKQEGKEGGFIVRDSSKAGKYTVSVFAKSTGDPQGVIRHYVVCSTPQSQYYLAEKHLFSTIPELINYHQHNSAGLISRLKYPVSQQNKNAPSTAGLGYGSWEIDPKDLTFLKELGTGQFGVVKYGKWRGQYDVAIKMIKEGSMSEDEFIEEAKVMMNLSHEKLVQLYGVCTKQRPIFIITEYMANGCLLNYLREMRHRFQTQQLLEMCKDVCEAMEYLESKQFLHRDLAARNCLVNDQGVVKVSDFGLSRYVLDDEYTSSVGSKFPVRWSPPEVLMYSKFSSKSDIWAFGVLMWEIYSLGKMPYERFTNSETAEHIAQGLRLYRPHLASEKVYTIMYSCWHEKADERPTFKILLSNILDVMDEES

DC50, 5 to 15 nM:
CN1CCN([C@@H]2CCCN(c3cnc(C(N)=O)c(Nc4ccc(N5CCC6CCN(Cc7ccc8c(c7)C(=O)N(N7CCC(=O)NC7=O)C8=O)CC6C5)cc4)n3)C2)C1=O (stereo partly shown) [Compound 104], CN1CCN([C@H]2CCCN(c3cnc(C(N)=O)c(Nc4ccc(N5CC[C@H]6CCN(c7ccc8c(c7)C(=O)N(N7CCC(=O)NC7=O)C8=O)C[C@H]6C5)cc4)n3)C2)C1=O [Compound 106], CN1CCN([C@H]2CCCN(c3cnc(C(N)=O)c(Nc4ccc(N5CCC6(CCCN(Cc7ccc8c(c7)C(=O)N(N7CCC(=O)NC7=O)C8=O)C6)CC5)cc4)n3)C2)C1=O [Compound 108], CN1CCN([C@H]2CCCN(c3cnc(C(N)=O)c(Nc4ccc(N5CCCC6(C5)CN(c5ccc7c(c5)C(=O)N(C5CCC(=O)NC5=O)C7=O)C6)cc4)n3)C2)C1=O (stereo partly shown) [Compound 111]

DC50, > 15 nM:
CN1CCN([C@@H]2CCCN(c3cnc(C(N)=O)c(Nc4ccc(N5CCN(Cc6ccc7c(c6)C(=O)N(C6CCC(=O)NC6=O)C7=O)CC5)cc4)n3)C2)C1=O (stereo partly shown) [Compound 100], CN1CCN([C@@H]2CCCN(c3cnc(C(N)=O)c(Nc4ccc(N5CCC6CCN(c7cccc8c7C(=O)N(N7CCC(=O)NC7=O)C8=O)CC6C5)cc4)n3)C2)C1=O (stereo partly shown) [Compound 105], CN1CCN([C@H]2CCCN(c3cnc(C(N)=O)c(Nc4ccc(N5CC[C@@H]6CCN(c7ccc8c(c7)C(=O)N(N7CCC(=O)NC7=O)C8=O)C[C@H]6C5)cc4)n3)C2)C1=O [Compound 107], NC(=O)c1ncc(N2CCCCC2)nc1Nc1ccc(N2CCC3(CC2)CCN(c2ccc4c(c2)C(=O)N(C2CCC(=O)NC2=O)C4=O)CC3)cc1 (stereo not shown) [Compound 124], NC(=O)c1ncc(-n2ccc(C(F)(F)F)n2)nc1Nc1ccc(C2CCN(CC3CCN(c4ccc5c(=O)n(C6CCC(=O)NC6=O)ccc5c4)CC3)CC2)cc1 (stereo not shown) [Compound 127], NC(=O)c1ncc(-n2ccc(C(F)(F)F)n2)nc1Nc1ccc(C2CCN(C[C@H]3CCN(c4ccc5c(c4)C(=O)N(C4CCC(=O)NC4=O)C5=O)C3)CC2)cc1 (stereo partly shown) [Compound 128]

DC50, < 5 nM:
CN1CCN([C@@H]2CCCN(c3cnc(C(N)=O)c(Nc4ccc(N5CCN(C6CN(Cc7ccc8c(c7)C(=O)N(C7CCC(=O)NC7=O)C8=O)C6)CC5)cc4)n3)C2)C1=O (stereo partly shown) [Compound 101], CN1CCN([C@H]2CCCN(c3cnc(C(N)=O)c(Nc4ccc(C5(C)CCN([C@H]6C[C@@H](Nc7cccc8c7C(=O)N(C7CCC(=O)NC7=O)C8=O)C6)CC5)cc4)n3)C2)C1=O (stereo partly shown) [Compound 102], CN1CCN([C@H]2CCCN(c3cnc(C(N)=O)c(Nc4ccc(C5(C)CCN([C@H]6C[C@H](Nc7cccc8c7C(=O)N(C7CCC(=O)NC7=O)C8=O)C6)CC5)cc4)n3)C2)C1=O (stereo partly shown) [Compound 103], CN1CCN([C@H]2CCCN(c3cnc(C(N)=O)c(Nc4ccc(N5CCC6(CC5)CCN(c5ccc7c(c5)C(=O)N(C5CCC(=O)NC5=O)C7=O)C6)cc4)n3)C2)C1=O (stereo partly shown) [Compound 109], CN1CCN([C@H]2CCCN(c3cnc(C(N)=O)c(Nc4ccc(N5CCN(CCCCc6cccc7c6CN(C6CCC(=O)NC6=O)C7=O)CC5)nc4)n3)C2)C1=O (stereo partly shown) [Compound 110], CN1CCN([C@H]2CCCN(c3cnc(C(N)=O)c(Nc4ccc(N5CCC6(CC5)CN(c5ccc7c(c5)C(=O)N(N5CCC(=O)NC5=O)C7=O)C6)cc4)n3)C2)C1=O [Compound 112], CN1CCN([C@@H]2CCCN(c3cnc(C(N)=O)c(Nc4ccc(N5CCN(C[C@H]6CCN(c7ccc8c(c7)C(=O)N(C7CCC(=O)NC7=O)C8=O)C6)CC5)nc4)n3)C2)C1=O (stereo partly shown) [Compound 113], CN1CCN([C@@H]2CCCN(c3cnc(C(N)=O)c(Nc4ccc(N5CC6CN(CC7CCN(c8ccc9c(c8)C(=O)N(N8CCC(=O)NC8=O)C9=O)CC7)CC6C5)cc4)n3)C2)C1=O (stereo partly shown) [Compound 114], CN1CCN([C@@H]2CCCN(c3cnc(C(N)=O)c(Nc4ccc(C5CCN(C[C@H]6CCN(c7ccc8c(=O)n(C9CCC(=O)NC9=O)ccc8c7)C6)CC5)cc4)n3)C2)C1=O (stereo partly shown) [Compound 115], CN1CCN([C@@H]2CCCN(c3cnc(C(N)=O)c(Nc4ccc(C5CCN(CC6CN(c7ccc8c(=O)n(C9CCC(=O)NC9=O)ccc8c7)C6)CC5)cc4)n3)C2)C1=O (stereo partly shown) [Compound 116], CN1CCN([C@@H]2CCCN(c3cnc(C(N)=O)c(Nc4ccc(C5CCN(C[C@H]6CCN(c7ccc8c(c7)CN(C7CCC(=O)NC7=O)C8=O)C6)CC5)cc4)n3)C2)C1=O (stereo partly shown) [Compound 117], CN1CCN([C@@H]2CCCN(c3cnc(C(N)=O)c(Nc4ccc(C5CN(CC6CCN(c7cnn(C8CCC(=O)NC8=O)c(=O)c7)CC6)C5)cc4)n3)C2)C1=O (stereo partly shown) [Compound 118], CN1CCN([C@@H]2CCCN(c3cnc(C(N)=O)c(Nc4ccc(C5CN(CC6CCN(c7ccc(-c8nn(C9CCC(=O)NC9=O)c(=O)n8C)cc7)CC6)C5)cc4)n3)C2)C1=O (stereo partly shown) [Compound 119], CN1CCN([C@@H]2CCCN(c3cnc(C(N)=O)c(Nc4ccc(C5CCN(CC6CCN(c7cnn(C8CCC(=O)NC8=O)c(=O)c7)CC6)CC5)cc4)n3)C2)C1=O (stereo partly shown) [Compound 120], CN1CCN([C@@H]2CCCN(c3cnc(C(N)=O)c(Nc4ccc(C5CCN(CC6CCN(c7ccc(-c8nn(C9CCC(=O)NC9=O)c(=O)n8C)cc7)CC6)CC5)cc4)n3)C2)C1=O (stereo partly shown) [Compound 121], NC(=O)c1ncc(N2CCC[C@H](N3CCCC3=O)C2)nc1Nc1ccc(C2CCN(CC3CCN(c4ccc5c(c4)CCN(C4CCC(=O)NC4=O)C5=O)CC3)CC2)cc1 (stereo partly shown) [Compound 122], NC(=O)c1ncc(-n2cccn2)nc1Nc1ccc(C2CCN(C[C@H]3CCN(c4ccc5c(c4)C(=O)N(C4CCC(=O)NC4=O)C5=O)C3)CC2)cc1 (stereo partly shown) [Compound 125], NC(=O)c1ncc(N2CCCC3(COC3)C2)nc1Nc1ccc(C2CCN(C[C@H]3CCN(c4ccc5c(c4)C(=O)N(C4CCC(=O)NC4=O)C5=O)C3)CC2)cc1 (stereo partly shown) [Compound 126], CN1CCN([C@H]2CCCN(c3cnc(C(N)=O)c(Nc4ccc(C5CCN(CC6CCN(c7ccc(NC8CCC(=O)NC8=O)cn7)CC6)CC5)cc4)n3)C2)C1=O (stereo partly shown) [Compound 129], CN1CCN([C@H]2CCCN(c3cnc(C(N)=O)c(Nc4ccc(C5CCN(CC6CCN(c7ccc(C(=O)NC8CCC(=O)NC8=O)cc7)CC6)CC5)cc4)n3)C2)C1=O (stereo partly shown) [Compound 130], Cn1cc(Nc2nc(N3CCC[C@H](N4CC5(CN(CC6CCN(c7ccc(NC8CCC(=O)NC8=O)nc7)CC6)C5)OC4=O)C3)cnc2C(N)=O)cn1 (stereo partly shown) [Compound 132], NC(=O)c1ncc(N2CCCCC2)nc1Nc1ccc(C2CCN(CC3CCN(c4ccc5c(=O)n(C6CCC(=O)NC6=O)ccc5c4)CC3)CC2)cc1 (stereo not shown) [Compound 133], CN1CCN([C@@H]2CCCN(c3cnc(C(N)=O)c(Nc4ccc(C5CCN(C[C@H]6CCN(c7ccc8c(=O)n(C9CCC(=O)NC9=O)ccc8c7)C6)CC5)cc4)n3)C2)C1=O (stereo partly shown) [Compound 134], Cn1c(-c2ccc(N3CC(CN4CCC(c5ccc(Nc6nc(N7CCC[C@H](N8CCCC8=O)C7)cnc6C(N)=O)cc5)CC4)C3)cc2)nn(C2CCC(=O)NC2=O)c1=O (stereo partly shown) [Compound 135], CN1CCN([C@H]2CCCN(c3cnc(C(N)=O)c(Nc4ccc(C5CCN(CC6CN(c7ccc(-c8nn(C9CCC(=O)NC9=O)c(=O)n8C)cc7)C6)CC5)cc4)n3)C2)C1=O (stereo partly shown) [Compound 136], Cn1cc(Nc2nc(N3CCC[C@@H](N4CCC5(CN(CC6CCN(c7ccc8c(c7)C(=O)N(C7CCC(=O)NC7=O)C8=O)CC6)C5)C4=O)C3)cnc2C(N)=O)cn1 (stereo partly shown) [Compound 137], CN1CCN([C@@H]2CCCN(c3cnc(C(N)=O)c(Nc4ccc(C5CCN(CC6CN(c7ccc8c(=O)n(C9CCC(=O)NC9=O)ccc8c7)C6)CC5)cc4)n3)C2)C1=O (stereo partly shown) [Compound 138], NC(=O)c1ncc(N2CCC[C@H](N3CCCC3=O)C2)nc1Nc1ccc(C2CN(CC3CCN(c4ccc5c(=O)n(C6CCC(=O)NC6=O)ccc5c4)CC3)C2)cc1 (stereo partly shown) [Compound 139], NC(=O)c1ncc(N2CCC[C@H](N3CCCC3=O)C2)nc1Nc1ccc(C2CN(C[C@@H]3CCN(c4ccc5c(c4)C(=O)N(C4CCC(=O)NC4=O)C5=O)C3)C2)cc1 (stereo partly shown) [Compound 140], Cn1c(N2CCC(CN3CC(c4ccc(Nc5nc(N6CCC[C@H](N7CCCC7=O)C6)cnc5C(N)=O)cc4)C3)CC2)nn(C2CCC(=O)NC2=O)c1=O (stereo partly shown) [Compound 141], CC1CCN([C@H]2CCCN(c3cnc(C(N)=O)c(Nc4ccc(C5CCN(C[C@@H]6CCN(c7ccc(-c8nn(C9CCC(=O)NC9=O)c(=O)n8C)cc7)C6)CC5)cc4)n3)C2)C1=O (stereo partly shown) [Compound 142], Cn1c(-c2ccc(N3CCC(CN4CCC(c5ccc(Nc6nc(N7CCC[C@H](N8CCCC8=O)C7)cnc6C(N)=O)cc5)CC4)CC3)cc2)nn(C2CCC(=O)NC2=O)c1=O (stereo partly shown) [Compound 143], NC(=O)c1ncc(N2CCC[C@H](N3CCCC3=O)C2)nc1Nc1ccc(C2CCN(CC3CCN(c4ccc5c(=O)n(C6CCC(=O)NC6=O)ccc5c4)CC3)CC2)cc1 (stereo partly shown) [Compound 144]
